Source: patent publication US11542287B2, “Alkyldiphenylmethane protective agent” (priority 2017, dated 2023)
In brackets after ≈: the same amount, converted by molar mass. Peptide text beside a SMILES is read from it.

Assay: physchem
Type: physicochemical
Description: Results of measurement of solubility of a peptide protected with an alkyldiphenylmethane protective agent of the present invention are shown below.
Peptide used as model: H-Phe-Leu-Gly-NH2
H-Phe-Leu-Gly-NH2 and H-Phe-Leu-Gly-NH-(TIPS2-Dpm(Me)) were synthesized, CPME (cyclopentyl methyl ether) was saturated with each of the compounds at 25° C., and the solubility was measured.
As a result, merely 0.2 mM of H-Phe-Leu-Gly-NH2 to which an alkyldiphenylmethane protective agent was not bonded was dissolved in CPME. […] H-Phe-Leu-Gly-NH2 and H-Phe-Leu-Gly-NH-(TIPS2-Dpm(Me)) represent the following structures.

With `CC(C)C[C@H](NC(=O)[C@@H](N)Cc1ccccc1)C(=O)NCC(=O)NC(C)(c1ccc(OCCCCCCCCCCCO[Si](C(C)C)(C(C)C)C(C)C)cc1)c1ccc(OCCCCCCCCCCCO[Si](C(C)C)(C(C)C)C(C)C)cc1` [H-Phe-Leu-Gly-NH-(TIPS2-Dpm(Me))] the “increase in solubility versus H-Phe-Leu-Gly-NH2” value was ≥ 4,190 fold and the solubility was ≥ 838000 µM.
With `CC(C)C[C@H](NC(=O)[C@@H](N)Cc1ccccc1)C(=O)NCC(N)=O` [H-Phe-Leu-Gly-NH2, reference compound] (H-Phe-Leu-Gly-NH2) the solubility was 200 µM (≈ 0.0669 mg/mL).
